# Measurements: US20140228445A1, “ALKYNE DERIVATIVES AS SPHINGOSINE 1-PHOSPHATE (S1P) RECEPTOR MODULATORS” (Allergan, Inc., priority 2013, published 2014)
# Target: T1, human S1P1 receptor (Homo sapiens, UniProt P21453)
# T1 construct: expressed in transfected cells; membranes used
# Assay: GTP γ35S binding assay for S1P1 activity
# Assay type: biochemical
# Conditions: membranes of cells stably expressing the S1P1 receptor, test range 0.08 to 5,000 nM
# Description: Compounds were synthesized and tested for S1P1 activity using the GTP γ^35S binding assay. These compounds may be assessed for their ability to activate or block activation of the human S1P1 receptor in cells stably expressing the S1P1 receptor.
# GTP γ^35S binding was measured in the medium containing (mM) HEPES 25, pH 7.4, MgCl2 10, NaCl 100, dithitothreitol 0.5, digitonin 0.003%, 0.2 nM GTP γ^35S, and 5 μg membrane protein in a volume of 150 μl. Test compounds were included in the concentration range from 0.08 to 5,000 nM unless indicated otherwise. Membranes were incubated with 100 μM 5′-adenylylimmidodiphosphate for 30 min, and subsequently with 10 μM GDP for 10 min on ice. Drug solutions and membrane were mixed, and then reactions were initiated by adding GTP γ^35S and continued for 30 min at 25° C. Reaction mixtures were filtered over Whatman GF/B filters under vacuum, and washed three times with 3 mL of ice-cold buffer (HEPES 25, pH7.4, MgCl2 10 and NaCl 100). Filters were dried and mixed with scintillant, and counted for ^35S activity using a β-counter. Agonist-induced GTP γ^35S binding was obtained by subtracting that in the absence of agonist. Binding data were analyzed using a non-linear regression method. In case of antagonist assay, the reaction mixture contained 10 nM S1P in the presence of test antagonist at concentrations ranging from 0.08 to 5000 nM.
# T1 sequence (P21453 whole entry): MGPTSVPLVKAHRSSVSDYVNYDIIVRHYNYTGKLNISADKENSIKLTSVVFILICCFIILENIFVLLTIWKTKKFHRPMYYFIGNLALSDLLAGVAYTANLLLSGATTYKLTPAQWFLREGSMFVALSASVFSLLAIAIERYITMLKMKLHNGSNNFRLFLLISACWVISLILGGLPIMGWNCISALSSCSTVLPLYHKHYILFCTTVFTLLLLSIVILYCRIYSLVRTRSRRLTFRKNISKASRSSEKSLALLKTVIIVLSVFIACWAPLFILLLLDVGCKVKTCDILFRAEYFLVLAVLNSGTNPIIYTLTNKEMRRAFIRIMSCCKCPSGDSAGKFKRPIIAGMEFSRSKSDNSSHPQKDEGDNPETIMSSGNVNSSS
row,EC50 [nM],Compound
1,416,"Cc1cccc(C(C#Cc2ccc(CCC(N)(CO)CO)cc2)Cc2ccc(C)c(C)c2)c1 (stereo not drawn) [Compound 3, 2-Amino-2-(2-{4-[4-(3,4-dimethylphenyl)-3-(3-methylphenyl)but-1-yn-1-yl]phenyl}ethyl)propane-1,3-diol]"
2,3.27,"Cc1ccc(CC(C#Cc2ccc(CCC(N)(CO)CO)cc2)c2cccc(F)c2)cc1C (stereo not drawn) [Compound 2, 2-Amino-2-(2-{4-[4-(3,4-dimethylphenyl)-3-(3-fluorophenyl)but-1-yn-1-yl]phenyl}ethyl)propane-1,3-diol]"
3,35.5,"Cc1ccc(CC(C#Cc2ccc(CCC(N)(CO)CO)cc2)c2cc(F)cc(F)c2)cc1C (stereo not drawn) [Compound 1, 2-Amino-2-(2-{4-[3-(3,5-difluorophenyl)-4-(3,4-dimethylphenyl)but-1-yn-1-yl]phenyl}ethyl)propane-1,3-diol]"
